The test system of data set [1] is rat model of elastase-induced emphysema. The data set can be described thus: Alveolar repair in the rat model of elastase-induced emphysema. In kind it is in vivo, male Sprague Dawley rats. The following applies: oral once per day, lower dosage levels (0.01 or 0.001 mg/kg), p≦0.05, FIG. 1. An excerpt: Compounds of the invention may be evaluated for their effects on alveolar repair in the rat model of elastase-induced emphysema (Massaro et al., Nature, 1997, Vol. 3, No. 6: 675; Massaro et al., U.S. Pat. No. 5,998,486). Preferably, animals are divided into treatment groups of approximately eight. Lung inflammation and alveolar damage may be induced in male Sprague Dawley rats by a single instillation of about 2 U/gram body mass of pancreatic elastase (porcine derived, Calbiochem).
Animals may be treated with a compound of the invention formulated Miglyol at convenient oral dosage ranges (preferably, between about 10.0 mg/kg and 0.0001 mg/kg) and will be dosed orally once per day starting 21 days post injury. Control groups are challenged with elastase and 21 days later are treated with vehicle (Miglyol) for 14 days. Animals were sacrificed 24 hours after the last dose by exsanguination under deep anesthesia. Blood was collected at time of exsanguination for analysis.
The lungs are inflated with 10% neutral buffered formalin by intratracheal instillation at a constant rate (1 ml/gram body mass/min). […] The mean value/treatment group may be determined by summing the average area/rat for all eight rats/treatment groups and repair of elastase damage expressed as percentage of repair relative to the elastase+vehicle treated group from the following calculation: […]

Data set [2] is described as follows: Effect of RAR agonists on plasma triglyceride levels. In kind it is in vivo, male, Wistar Han rats. The following applies: rat, oral. The text has this:
Sixty male, Wistar Han rats (Charles Rivers Laboratories) were used in this experiment. The received weight of the rats varied between 200-250 gm. The compounds used in this study were formulated in Miglyol 812, Batch 000719, Product #6330 (Condea) with 0.01% BHA and 0.01% BHT. Three RAR agonists, illustrated below, were compared with regards to their effects on triglyceride levels. Compounds 39 and 40 are prior art compounds (see, Hashimoto, Yuichi; Kagechika, Hiroyuki; Kawachi, Emiko; Fukasawa, Hiroshi; Saito, Go; Shudo, Koichi. “Evaluation of differentiation-inducing activity of retinoids on human leukemia cell lines HL-60 and NB4” Biol. Pharm. Bull. (1996), 19(10), 1322-1328; and Takagi, Kanji; Suganuma, Masami; Kagechika, Hiroyuki; Shudo, Koichi; Ninomiya, Mitsuo; Muto, Yasutoshi; Fujiki, Hirota. “Inhibition of ornithine decarboxylase induction by retinobenzoic acids in relation to their binding affinities to cellular retinoid-binding proteins” J. Cancer Res. Clin. Oncol. (1988), 114(3), 221-4, while compound 27 is a compound prepared in Example 7, herein.
Animals were dosed with compounds 27, 39 and 40 or vehicle for two weeks (one 1.0 mL dose a day, total of 10 doses) by oral administration. Doses were 0.3 mg/kg, 1 mg/kg and 3 mg/kg. Animals were weighed twice a week for monitoring gross toxicity (% weight change and mucutaneous).
Animals were fasted for at least 4 hours before terminal blood collection. At the end of the experiment the animals were placed under deep anesthesia using pentobarbital ip (30-40 mg). Five to six ml of blood was collected via cardiac puncture for blood chemistry (Quality Clinical Lab, Mountain View, Calif.) and PK analysis (terminal). Animals were euthanized by exsanguination from the abdominal aorta or cervical dislocation. Plasma was collected and stored at −20
Quantitation of triglycerides contained in rat plasma may be performed using established procedures. […] Hydrogen peroxide may be quantitated […] in a Hitachi 911 Chemistry Analyzer. […]

The subject of data set [3] is retinoic acid receptor (α, β and γ). As to the kind of experiment: Transactivation of retinoic acid receptors. The following applies: compared to prior art compounds 39 and 40. In kind it is cell-based. An excerpt: Transactivation, which is the ability of a retinoid to activate gene transcription when gene transcription is initiated by the binding of a ligand to the particular retinoic acid receptor being tested, may be determined by using methods described in the art (Apfel et al., Proc. Natl. Acad. Sci., 1992, 89, 7129; Bernard et al., Biochem. And Biophys. Res. Comm., 1992, 186, 977 which is herein incorporated by reference).

Data on 7 molecules can be found in patent US6844466B2, “Alkyl urea retinoid agonists” (Syntex (U.S.A.) LLC, priority 2001, dated 2005).

Structures are written as SMILES. Values joined by “and” are separate entries in the source; they are usually repeats but may differ in a detail not shown here. Equal values may be shown once.

As to `CCCCCCCCN(C(=O)Nc1ccc(C(=O)O)cc1)c1ccc2c(c1)C(C)(C)CCC2(C)C` [Compound 25, 4-[3-octyl-3-(5,5,8,8-tetramethyl-5,6,7,8-tetrahydro-naphthalen-2-yl)-ureido]-benzoic acid], the melting point – broadly, the temperature of the solid-liquid transition – was 166 to 167 °C and 165.8 to 167.2 °C.

As to `CCCCCCN(C(=O)Nc1ccc(C(=O)O)cc1)c1ccc2c(c1)C(C)(C)CCC2(C)C` [Compound 13, 4-[3-hexyl-3-(5,5,8,8-tetramethyl-5,6,7,8-tetrahydro-naphthalen-2-yl)-ureido]-benzoic acid], the melting point is 176 to 177 °C.

`CCCCCN(C(=O)Nc1ccc(C(=O)O)cc1)c1ccc2c(c1)C(C)(C)CCC2(C)C` [Compound 27, 4-[3-pentyl-3-(5,5,8,8-tetramethyl-5,6,7,8-tetrahydro-naphthalen-2-yl)-ureido]-benzoic acid]: the alveolar repair result in data set [1] is “significant”. The “triglyceride levels expressed as a percentage relative to vehicle control (100%)” value in data set [2] (two weeks (10 doses), at the higher dose, FIG. 2) was below 100%. Further, the “elevation of triglyceride levels relative to vehicle control (in words)” value in data set [2] (two weeks, 0.3, 1 and 3 mg/kg) was “did not significantly elevate triglycerides levels”. The “selectivity of transactivation among RAR α, β and γ” value (from here on “selectivity”) in data set [3] is given as “unexpectedly selective at activating transcription activity through the gamma receptor”.

For the molecule `CCCCCN(C(=O)Nc1ccc(C(=O)O)cc1F)c1ccc2c(c1)C(C)(C)CCC2(C)C` [Compound 57, 3-fluoro-4-[3-pentyl-3-(5,5,8,8-tetramethyl-5,6,7,8-tetrahydro-naphthalen-2-yl)-ureido]-benzoic acid], the melting point was in the range of 150.9 to 157.4 °C.

For the molecule `CCCN(C(=O)Nc1ccc(C(=O)O)cc1)c1ccc2c(c1)C(C)(C)CCC2(C)C` [Compound 55], the melting point was in the range of 175 to 186 °C. Further, the “selectivity” value in data set [3] is listed as “unexpectedly selective at activating transcription activity through the gamma receptor”.

On to `CC1(C)CCC(C)(C)c2cc(NC(=O)Nc3ccc(C(=O)O)cc3)ccc21` [Compound 39, reference compound], for which the “selectivity” value in data set [3] is “pan-agonists”.

For `CN(C(=O)Nc1ccc(C(=O)O)cc1)c1ccc2c(c1)C(C)(C)CCC2(C)C` [Compound 40, reference compound], the “dose dependence of triglyceride levels” value in data set [2] (two weeks, 0.3, 1 and 3 mg/kg) was “triglyceride levels increasing with increasing dosage”. For the same molecule, the “selectivity” value in data set [3] is on record as “pan-agonists”.
